These results are taken from US11306100B2, “Spirooxindole compounds as GSK3B inhibitors and process for preparation thereof” (COUNCIL OF SCIENTIFIC & INDUSTRIAL RESEARCH, priority 2017, dated 2022).

One data set concerns the target recombinant GSK3β (Homo sapiens, UniProt P49841). The data set is described as follows: ADP-Glo kinase assay of GSK3β activity. The data set is classed as biochemical. As to conditions: for IC50: GSK3β kinase activity. How it is done: Activity of recombinant GSK3β is measured using ADP-Glo Kinase assay according to supplier's standard protocol with minor modifications in 384 well format. Briefly, kinase reaction mixture was prepared by adding […] of recombinant enzyme, 2 μM ATP, 1 μg of enzyme substrate along with test compound or DMSO to a final volume of 5 μl. The kinase reaction was performed by incubating the mixture at room temperature for 17 mins. To correct reaction back ground a substrate blank reaction was also performed. ADP glow reagent (equal volume to reaction mixture) was added to the reaction mixture to deplete any unused ATP added to the kinase reaction and incubated at further 40 min at 27° C. Then 10 μl of kinase detection reagent was added followed by incubation for 30 min at 27° C. to convert ADP to ATP and introduce luciferase to measure kinase activity. The luminescence was measured using luminometer (Perkin Elmer) which is directly proportional to ADP generated in kinase reaction. To determine the amount of ADP produced in kinase reaction and calculate specific activity of the enzyme, a conversion curve is prepared by serial dilution of ADP and ATP mixture. Specific activity of the GSK3β was calculated using the following equation. (ADP(kinase reaction)−ADP(substrate blank)) in mmol)/(Reaction time in min)×(GSK3β in mg).
On the technique in general: ADP-Glo turns the ADP formed in a reaction into a luminescent signal.

The subject of data set [1] is cellular GSK3β signalling in PANC-1 cells. The data set is described as follows: Western blot of GSK3β signalling and NFkB target proteins in PANC-1 cells. Type of data set: cell-based. How it is done: The compounds inhibiting GSK3β activity in-vitro added to PANC-1 cells to determine their potential against intracellular GSK3β signalling pathways in cancer cells. Briefly, PANC-1 cells were plated in 60 mm plates (100,000 cells/4 mL) and cultured in the standard DMEM medium containing 10% serum. After culturing for 18 hrs, different concentrations of test compounds or standard controls prepared in DMSO were added to culture media to achieve final concentration 0 to 100 μM of compound to cells. Cells were further continued to grow for 48 h with constant supply of 5% CO2 in humid incubator. The time course (0 to 48 h) experiment was carried out simultaneously with fixed concentration of compound showing 50% growth inhibition. At the end of the experiments, all cells were scraped directly in cold PBS and washed for 3 times before lysis directly in 2D lysis buffer (8M urea, 2M thiourea, 4% CHAPS, 4 mM tris base and 65 mM DTT) for isolation of proteins to perform western blots. The protein concentration was determined by modified Bradford assay.
To perform western blot, protein extracts were separated on 12% SDS-PAGE and electrophoretically (1 mA/cm^2 membrane for 1 hr) transferred onto the nitrocellulose membrane by semi-dry method. After protein transfer, membrane was stained with Ponceau S solution (0.2% Ponceau S in 3% Trichloroacetic acid) for 2 min to see efficiency of electrophoretic transfer. The membrane was destained in ddH2O to visualize the protein bands and further destained with TBST (20 mM Tris, 138 mM NaCl, pH 7.6 and 0.1% Tween 20) for blotting. To avoid non-specific detection of target proteins, blotted membranes were blocked with BSA (3% BSA in TBST solution). All antibodies against specific protein targets of interest were purchased from Cell Signaling Technology, USA if not mentioned specifically. Then the blots were incubated with antibodies prepared in blocking buffer (1:1000 Antibody to blocking buffer dilution) for 18 h with constant shaking at 4° C. Three washing steps in PBS each for 5 mins removed the excess and non-specific antibodies. For visualization, blots were incubated with secondary antibody conjugated to either horseradish peroxidase or alkaline phosphatase [anti-(mouse IgG) or anti-(rabbit IgG), diluted 1:5000 in TBST] for 1 h at room temperature. After three washes in PBS, the reaction was developed either by addition of LumiGLO substrate (Cell Signaling Technology) followed by capturing on X-ray film or addition of chromogenic NBT (nitro-blue tetrazolium chloride) and BCIP (5-bromo-4-chloro-3′-indolyphosphate p-toluidine salt) substrate for alkaline phosphatase developing purple colored bands. The blots were scanned for densitometry performed using Image-J program.
(A western blot detects proteins with antibodies after separation by electrophoresis.)

Data set [2] concerns PANC-1 cells. The data set is described as follows: Cell viability, Sulforhodamine B assay. Type of data set: cell-based. How it is done: Cell viability was measured using Sulforhodamine B assay. The cytotoxic effect of the compounds with GSK3β inhibitory potential was tested against PANC-1 cells. Initially, the PANC-1 cells were seeded in flat bottom 96-well plate (5000 cells/100 μL) in complete medium and cultured for 18 hrs under standard conditions. After 18 h the cells were treated with either the different concentration of compounds, standard drugs or DMSO as solvent control. The final DMSO concentration to cells was maintained <2% in all cytotoxic assays. Each compound was tested in triplicate and the cytotoxicity was determined as the average of that triplicate. Further, the plates were incubated for another 48 h in an incubator maintained at 37° C. with a constant supply of 5% CO2. The cells were fixed using 10% TCA and incubated for 1 h at 4° C. Then the plates were rinsed carefully with MQ water and air dried at room temperature. To all the wells of MTP plate 0.057% SRB solution was added and kept for approximately 30 min before it was rinsed off using 1% acetic acid. The plates were then air dried and 100 μL of 10 mM tris base was added to each well to solubilize the SRB before absorbance was measured at 510 nm. The measure of absorbance is directly proportional to cell growth and is thus used to calculate % reduction in the rate of cell proliferation according to control DMSO treated cells. All experiments were performed in triplicates; mean % age proliferation values with ±SD were plotted here.

The test system of data set [3] is PANC-1 cells. The data set is described as follows: Colony formation (soft agar, clonogenic) assay. Type of data set: cell-based. As to conditions: TRAIL alone, 10 ηg/mL. The procedure: To determine the efficiency of GSK3β inhibitors in combination with the TRIAL on anchorage independent growth of PANC-1 cells soft agar assay were performed. The base agar (0.5%) was prepared by mixing equal amounts of 1% agar with 2× media (20% FBS and 2× antibiotics) filled in 6-well plate. Simultaneously, PANC-1 cells (14000/well) mixed with 2× media containing different concentrations of identified compounds alone or in combination with TRAIL mixed with 0.7% of sterile agar to achieve final concentration of […] top agar. The cell suspension was spread on solidified base agar. Then the plates were incubated in CO2 incubator for 14 days and the cells were fed with fresh media containing respective concentration and combination of TRIAL every 3 days. Upon termination (after 14 days of incubation) plates were stained with 0.005% of crystal violet for 1 h and excess stain was removed by washing with MQ. The number of blue colonies were counted using olympus Xi71 microscope.

recombinant GSK3β, sequence (P49841 whole entry): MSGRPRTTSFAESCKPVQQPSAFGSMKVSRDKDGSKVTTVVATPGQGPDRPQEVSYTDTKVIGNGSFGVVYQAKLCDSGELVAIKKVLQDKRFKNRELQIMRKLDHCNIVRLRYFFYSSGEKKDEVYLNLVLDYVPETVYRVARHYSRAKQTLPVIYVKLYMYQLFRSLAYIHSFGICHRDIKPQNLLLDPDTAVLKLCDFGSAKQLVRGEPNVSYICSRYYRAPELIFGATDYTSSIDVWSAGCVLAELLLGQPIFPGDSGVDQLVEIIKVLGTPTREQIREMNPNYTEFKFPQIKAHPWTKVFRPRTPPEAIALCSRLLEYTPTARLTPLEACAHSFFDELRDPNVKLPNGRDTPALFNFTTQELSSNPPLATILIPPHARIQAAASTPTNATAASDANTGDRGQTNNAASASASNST

Turning to `COC(=O)c1ccc(-c2cc(Cl)ccc2OCc2cn(CC3CC4(CO3)C(=O)Nc3ccccc34)nn2)nc1C` (stereo not shown) [AB-N, Methyl-6-(5-chloro-2-((1-((2′-oxo-4,5-dihydro-2H-spiro[furan-3,3′-indoline]-5-yl)methyl)-1H-1,2,3-triazol-4-yl)methoxy)phenyl)-2-methylnicotinate], the melting point was 120 to 122 °C. As for `CC(=O)Nc1ccccc1` [Acetanilide, reference compound], the IC50 on recombinant GSK3β (2 μM ATP) was 6.53 ± 0.52 µM. On the same count and under the same terms, the figure for `O=C1Cc2ccccc2N1` [Oxindole] is 6.46 ± 0.63 µM.

For `O=C1Nc2ccccc2C12COC(CN1CCN(Cc3ccccc3)CC1)C2` (stereo not shown) [AB-R, 5-((4-Benzylpiperazin-1-yl)methyl)-4,5-dihydro-2H-spiro[furan-3,3′-indolin]-2′-one], the melting point is 141 to 143 °C. Take `CCOC(=O)c1ccc(-c2cc(Cl)cc(Cl)c2OCc2cn(CC3CC4(CO3)C(=O)Nc3ccccc34)nn2)nc1C` (stereo not shown) [AB-W, Ethyl6-(3,5-dichloro-2-((1-((2′-oxo-4,5-dihydro-2H-spiro[furan-3,3′-indoline]-5-yl)methyl)-1H-1,2,3-triazol-4-yl)methoxy)phenyl)-2-methylnicotinate]: the melting point was in the range of 132 to 135 °C. In turn, `O=C1Nc2ccccc2C12COC(CN1CCN(c3ccccc3)CC1)C2` (stereo not shown) [AB-X, 5-((4-Phenylpiperazin-1-yl)methyl)-4,5-dihydro-2H-spiro[furan-3,3′-indolin]-2′-one] displayed a melting point of 130 to 132 °C. As to `O=C1Nc2ccccc2C12COC(CN1CCSCC1)C2` (stereo not shown) [AB-L, 5-(Thiomorpholinomethyl)-4,5-dihydro-2H-spiro[furan-3,3′-indolin]-2′-one], the IC50 at recombinant GSK3β (2 μM ATP) was found to be 4.06 ± 1.67 µM. As to `O=C1Nc2ccccc2C12COC(CN1CCOCC1)C2` (stereo not shown) [AB-K, 5-(Morpholinomethyl)-4,5-dihydro-2H-spiro [furan-3, 3′-indolin]-2′-one], the melting point lay in the range of 126 to 128 °C. Also, the IC50 at recombinant GSK3β (2 μM ATP) is 4.91 ± 0.56 µM. For `CCOC(=O)c1cn(CC2CC3(CO2)C(=O)Nc2ccccc23)nn1` (stereo not shown) [AB-F, Ethyl-1-((2′-oxo-4,5-dihydro-2H-spiro[furan-3,3′-indoline]-5-yl)methyl)-1H-1,2,3-triazole-4-carboxylate], the melting point lay in the range of 133 to 134 °C. On recombinant GSK3β (2 μM ATP), the IC50 came out at 4.68 ± 0.6 µM. In the case of `Cc1ccc([N+](=O)[O-])cc1S(=O)(=O)N(C)/N=C/c1cnc2ccc(Br)cn12` [PIK-75, reference compound], on recombinant GSK3β, the IC50 was 0.0176 µM. Consider `CC(C)(O)c1cn(CC2CC3(CO2)C(=O)Nc2ccccc23)nn1` (stereo not shown) [AB-E, 5-((4-(2-Hydroxypropan-2-yl)-1H-1,2,3-triazol-1-yl)methyl)-4,5-dihydro-2H-spiro[furan-3,3′-indolin]-2′-one], for which the IC50 on recombinant GSK3β (2 μM ATP) is 5.44 ± 1.49 µM.

Take `[Cl-].[Li+]` [Licl, LiCl, reference compound]: the 50% inhibitory concentration (IC50) on recombinant GSK3β was 3990 µM. For the molecule `O=C1Nc2ccccc2C12COC(CI)C2` (stereo not shown) [6a, 5-(Iodomethyl)-4,5-dihydro-2H-spiro[furan-3,3′-indolin]-2′-one], the melting point was 170.6 °C.

With `O=Cc1ccccc1OCc1cn(CC2CC3(CO2)C(=O)Nc2ccccc23)nn1` (stereo not shown) [AB-P, 2-((1-((2′-Oxo-4,5-dihydro-2H-spiro[furan-3,3′-indoline]-5-yl)methyl)-1H-1,2,3-triazol-4-yl)methoxy)benzaldehyde], the IC50 at recombinant GSK3β (2 μM ATP) was 4.93 ± 0.53 µM. Consider `O=C1Nc2ccccc2C12COC(Cn1cc(-c3ccccc3)nn1)C2` (stereo not shown) [AB-C, 5-((4-Phenyl-1H-1,2,3-triazol-1-yl)methyl)-4,5-dihydro-2H-spiro[furan-3,3′-indolin]-2′-one], for which the melting point was in the range of 175 to 177 °C. The “inhibition of GSK3β in in-vitro kinase assays” value on recombinant GSK3β is “potent inhibition”. For the same molecule, the IC50 on recombinant GSK3β (2 μM ATP) is 3.59 ± 0.98 µM. The “phosphorylation of GSK3β” value in data set [1] (PANC-1 cells treated with compound) is “significantly decreased”. In addition, in data set [1] (PANC-1 cells versus control (DMSO)), the β-catenin level entry is given as “accumulation of β-catenin”. In the data set on PANC-1 cells [2] (FIG. 3B, low concentration of TRAIL (1 ηg/mL)), the “effectiveness against cell growth” value was “not effective compared to remaining compounds”. Further, in the data set with PANC-1 cells [2] (in combination with TRAIL (10 ηg/mL), FIG. 3A), the “effectiveness against cell growth / sensitisation to TRAIL” value is given as “less effective compared to other molecules”.

B1: TRAIL: Tumor necrosis factor-related apoptosis-inducing ligand (TRAIL) (protein, UniProt P50591 1-281, looked up)
Tumor necrosis factor ligand …: MAMMEVQGGPSLGQTCVLIVIFTVLLQSLCVAVTYVYFTNELKQMQDKYSKSGIACFLKEDDSYWDPNDEESMNSPCWQVKWQLRQLVRKMILRTSEETISTVQEKQQNISPLVRERGPQRVAAHITGTRGRSNTLSSPNSKNEKALGRKINSWESSRSGHSFLSNLHLRNGELVIHEKGFYYIYSQTYFRFQEEIKENTKNDKQMVQYIYKYTSYPDPILLMKSARNSCWSKDAEYGLYSIYQGGIFELKENDRIFVSVTNEHLIDMDHEASFFGAFLVG
B1: in the data set on PANC-1 cells [3], the “inhibition of colony formation” value was “did not show effective inhibition on colony formation”. In addition, the “cell death in PANC-1 cells” value with PANC-1 cells [2] (TRAIL alone (10 ηg/ml)) is recorded as “did not cause any significant cell death”.

Broadly, the melting point is the temperature of the solid-liquid transition. In general, IC50 refers to the concentration at which inhibition is half-maximal.
